≈ marks a conversion by molar mass, not a printed value. Calls of active or inactive are those of the source. No cut-off for these calls is given here. Some results are limits rather than exact numbers.

Results on 37 compounds are retold here after ChEMBL document CHEMBL1130610, “Synthesis and immunosuppressant activity of pyrazole carboxamides” (Bioorg Med Chem Lett, 1998).

Data set [1] is filed under the species Homo sapiens. Description: Immunosuppressant activity using human mixed leukocyte response (HMLR). It is filed as functional.
Data set [2] is filed under the species Rattus norvegicus. Description: Immunosuppressant activity in rat using mixed leukocyte response (MLR). It is filed as functional.
The species named for data set [3] is Homo sapiens. Description: Compound was tested for immunosuppressant activity using human mixed leukocyte response(HMLR); Not active, < 20 % inhibition at 10 uM. It is filed as functional.
The species entered for data set [4] is Rattus norvegicus. Description: Compound was tested for immunosuppressant activity in rat using mixed leukocyte response(MLR); Not active, < 20 % inhibition at 10 uM. It is filed as functional.
The species named for data set [5] is Homo sapiens. Nature of the data set: Compound was tested for immunosuppressant activity using human mixed leukocyte response(HMLR) at a concentration of 10 uM; Not active. The data set is classed as functional.
Data set [6] is filed under the species Homo sapiens. Description: Compound was tested for immunosuppressant activity using human mixed leukocyte response(HMLR) assay. The data set is classed as functional.
The species named for data set [7] is Rattus norvegicus. Nature of the data set: Compound was tested for immunosuppressant activity in rat using mixed leukocyte response(MLR) at a concentration of 10 uM; Not active. The data set is classed as functional.
Data set [8] can be described thus: Half-life value was evaluated. The data set is classed as ADME.
The species entered for data set [9] is Rattus norvegicus. Nature of the data set: Compound was tested for immunosuppressant activity in rat using mixed leukocyte response (MLR). The data set is classed as functional.
For data set [10], the species on record is Homo sapiens. Nature of the data set: Compound was tested for immunosuppressant activity using human mixed leukocyte response (HMLR). The data set is classed as functional.
The nature of data set [11]: Aqueous solubility at a pH of 7.3. It is filed as physicochemical. The following applies: pH 7.3, read-out: S.
Data set [12] is described as follows: C max value was evaluated. The data set is classed as ADME, organism-based. The following applies: in vivo.
The species named for data set [13] is Homo sapiens. Nature of the data set: Compound was tested for immunosuppressant activity using human mixed leukocyte response(HMLR) at 10 uM; Not active. The data set is classed as functional.

A word on the IC50: it is the concentration needed to halve the response being measured. Low readings indicate higher potency, high ones lower potency. As to `Cc1cc(C)cc(-n2ncc(C(=O)Nc3ccc(C(F)(F)F)cc3)c2C)c1`, the IC50 in data set [1] was 2200 nM; in data set [2] it was 410 nM.

In the case of `Cc1c(C(=O)Nc2ccc(C(F)(F)F)cc2)cnn1Cc1ccc(F)cc1`, the IC50 was 3600 nM in data set [1] and 2400 nM in data set [2].

As usually defined, the inhibition is the change of the read-out against control, counted positive when it falls. With `C/C(Nc1ccc(F)cc1)=C(/C#N)C(=O)Nc1ccc(C(F)(F)F)cc1`, the inhibition result in data set [3] and in data set [4] was “inactive” each time.

In data set [2], `Cc1c(C(=O)NCCc2ccc(F)cc2)cnn1-c1ccc(F)cc1` gave an IC50 of 300 nM. This compound registered an inhibition at 10 µM in data set [5] of less than 20%.

In the case of `C/C(Nc1ccc([N+](=O)[O-])cc1)=C(/C#N)C(=O)Nc1ccc(C(F)(F)F)cc1`, the inhibition entry in data set [3] and in data set [4] was “inactive” throughout.

Regarding `Cc1c(C(=O)Nc2ccc(C(F)(F)F)cc2)cnn1CCc1ccc(F)cc1`, the IC50 in [1] came to 5400 nM; in data set [2], 1700 nM.

Regarding `COc1cccc(-n2ncc(C(=O)Nc3ccc(C(F)(F)F)cc3)c2C)c1`, the IC50 in data set [1] and in data set [2] was 2500 nM throughout.

As to `Cc1c(C(=O)Nc2ccc(C(F)(F)F)cc2)cnn1-c1cccc(F)c1`, the IC50 was found to be 3100 nM in data set [1] and 220 nM in data set [2].

On to `Cc1c(C(=O)Nc2ccc(F)cc2)cnn1-c1ccc(F)cc1`, for which the concentration for half-maximal inhibition (IC50) in [2] was found to be 610 nM; in data set [6], 2400 nM.

In the case of `Cc1c(C(=O)Nc2cccc(F)c2)cnn1-c1ccc(F)cc1`, the IC50 turned out to be 3000 nM in [1] and 800 nM in data set [2].

Regarding `Cc1ccccc1-n1ncc(C(=O)Nc2ccc(C(F)(F)F)cc2)c1C`, the IC50 in data set [1] was 1500 nM; in data set [2], 150 nM.

Take `C/C(Nc1ccccc1)=C(/C#N)C(=O)Nc1ccc(C(F)(F)F)cc1`: the inhibition result in data set [3] and in data set [4] was “inactive” throughout.

As to `Cc1n[nH]cc1C(=O)Nc1ccc(C(F)(F)F)cc1`, the inhibition at 10 µM in data set [5] and in [7] was less than 20% throughout.

For `Cc1cccc(-n2ncc(C(=O)Nc3ccc(C(F)(F)F)cc3)c2C)c1`, the results for the IC50 in data set [1] and in data set [2] were 2500 nM and 890 nM, respectively.

Broadly, the half-life is the time in which the quantity being followed falls by half. Read a high half-life as slow loss. As a reminder, the Cmax is the maximum level reached in the sampled fluid or tissue. Take `Cc1c(C(=O)Nc2ccc(C(F)(F)F)cc2)cnn1-c1ccc(F)cc1`: the half-life in data set [8] is 13.7 h. In addition, the IC50 in data set [9] came out at 270 nM; in data set [10], 850 nM. The solubility in data set [11] turned out to be 0.4 µg/mL (≈ 1.1 µM). The same compound came in with a maximum concentration (Cmax) in data set [12] of 460 ng/mL.

In data set [2], `Cc1c(C(=O)NCc2ccc(F)cc2)cnn1-c1ccc(F)cc1` registered an IC50 of 330 nM. This compound returned an inhibition at 10 µM in data set [13] of less than 20%.

For the compound `Cc1c(C(=O)Nc2ccc(C(F)(F)F)cc2)cnn1-c1ccc([N+](=O)[O-])cc1`, the half-inhibitory concentration (IC50) was 5700 nM in data set [1] and 2300 nM in data set [2].

For `Cc1c(C(=O)N(CC(=O)O)c2ccc(C(F)(F)F)cc2)cnn1-c1ccc(F)cc1`, the half-life in [8] was 6 h. Further, the IC50 was determined as 3200 nM in data set [1] and 310 nM in data set [2]. Moreover, the solubility in data set [11] came out at 1530 µg/mL (≈ 3640 µM). The same compound yielded a Cmax in data set [12] of 4450 ng/mL.

Take `Cc1c(C(=O)Nc2ccc(C(F)(F)F)cc2)cnn1-c1ccccc1C(F)(F)F`: the 50% inhibitory concentration (IC50) in data set [1] was found to be 2600 nM; in [2], 260 nM.

On to `Cc1ccccc1NC(=O)c1cnn(-c2ccc(F)cc2)c1C`, for which the IC50 in data set [1] was found to be 1100 nM; in data set [2] it was 110 nM.

As to `Cc1c(C(=O)Nc2ccccc2F)cnn1-c1ccc(F)cc1`, the IC50 was determined as 4000 nM in [1] and 5100 nM in data set [2].

For the compound `Cc1c(C(=O)Nc2ccc(C(F)(F)F)cc2)cnn1-c1ccc(Cl)cc1`, the IC50 in data set [1] came to 410 nM; in [2] it was 7400 nM.

As for `Cc1c(C(=O)Nc2ccc(OC(F)(F)F)cc2)cnn1-c1ccc(F)cc1`, the IC50 in [1] came to 3400 nM; in data set [2], 2600 nM.

Consider `Cc1c(C(=O)Nc2ccc(C(F)(F)F)cc2)cnn1-c1ccc(F)c(Cl)c1`, for which the IC50 was 1300 nM in data set [1] and 210 nM in data set [2].

As for `Cc1c(C(=O)Nc2cccc(C(F)(F)F)c2)cnn1-c1ccc(F)cc1`, the IC50 in [1] stood at 1700 nM; in data set [2], 1100 nM.

`Cc1c(C(=O)Nc2ccc(C(F)(F)F)cc2)cnn1-c1cccc(Cl)c1Cl`: the values for the half-maximal inhibitory concentration (IC50) in data set [1] and in [2] were 1600 nM and 240 nM, respectively.

As for `Cc1c(C(=O)Nc2ccc(C(F)(F)F)cc2)cnn1-c1ccccc1`, the IC50 in data set [1] stood at 2300 nM; in data set [2], 650 nM.

Regarding `Cc1c(C(=O)Nc2ccc(C(F)(F)F)cc2)cnn1Cc1ccccc1`, the IC50 in data set [1] was determined as 3700 nM; in data set [2], 2700 nM.

For the compound `Cc1c(C(=O)Nc2ccc(C(F)(F)F)cc2)cnn1-c1ccccc1F`, the IC50 in data set [1] amounted to 1100 nM; in data set [2], 110 nM.

For `COc1cccc(NC(=O)c2cnn(-c3ccc(F)cc3)c2C)c1`, the figures for the IC50 in data set [1] and in data set [2] were 3700 nM and 3600 nM, respectively.

`Cc1ccc(NC(=O)c2cnn(-c3ccc(F)cc3)c2C)cc1`: the IC50 was 540 nM in data set [1] and 200 nM in [2].

Turning to `Cc1c(-c2ccc(-c3ccccc3F)cc2)nc2ccc(F)cc2c1C(=O)O` [BREQUINAR], the half-maximal inhibitory concentration (IC50) came to 3900 nM in data set [1] and 1600 nM in data set [2].

As for `Cc1cccc(NC(=O)c2cnn(-c3ccc(F)cc3)c2C)c1`, the IC50 was found to be 5700 nM in [1] and 890 nM in [2].

Consider `Cc1oncc1C(=O)Nc1ccc(C(F)(F)F)cc1` [LEFLUNOMIDE], for which the figures for the IC50 in data set [1] and in [2] were 5400 nM and 1000 nM, respectively.

For the compound `COc1ccc(-n2ncc(C(=O)Nc3ccc(C(F)(F)F)cc3)c2C)cc1`, the half-maximal inhibitory concentration (IC50) stood at 340 nM in data set [1] and 1000 nM in [2].

As for `Cc1ccc(-n2ncc(C(=O)Nc3ccc(C(F)(F)F)cc3)c2C)cc1`, the IC50 in data set [1] is 410 nM; in [2] it was 1000 nM.

Consider `CCCCC(CC)NC(=O)c1cnn(-c2ccc(F)cc2)c1C` (stereo not given), for which the figures for the IC50 in data set [1] and in [2] were 580 nM and 110 nM, respectively.
